Data published in PubChem BioAssay (NCI).
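GI50 = concentration required for 50% inhibition of growth. TGI denotes the concentration required for complete inhibition of growth.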

Key:
Experiment in all cases: DTP human tumour cell line panel, 384-well format
HL-60(TB) leukemia = system: HL-60(TB) leukemia
ACHN renal = system: ACHN renal
OVCAR-3 ovarian = system: OVCAR-3 ovarian
786-0 renal = system: 786-0 renal
HCT-15 colon = system: HCT-15 colon
SK-MEL-28 melanoma = system: SK-MEL-28 melanoma
LOX IMVI melanoma = system: LOX IMVI melanoma
U251 glioblastoma = system: U251 glioblastoma
MDA-MB-468 breast = system: MDA-MB-468 breast
SF-539 CNS = system: SF-539 CNS
HOP-62 NSCLC = system: HOP-62 NSCLC
NCI-H23 lung = system: NCI-H23 lung
NCI-H226 lung = system: NCI-H226 lung
DU-145 prostate = system: DU-145 prostate
A549 NSCLC = system: A549 NSCLC
MDA-MB-231 breast = system: MDA-MB-231 breast
HOP-92 NSCLC = system: HOP-92 NSCLC
KM12 colon = system: KM12 colon
OVCAR-5 ovarian = system: OVCAR-5 ovarian
IGROV1 ovarian = system: IGROV1 ovarian
EKVX NSCLC = system: EKVX NSCLC
SK-OV-3 ovarian = system: SK-OV-3 ovarian
T-47D breast = system: T-47D breast
SF-295 CNS = system: SF-295 CNS
MDA-MB-435 melanoma = system: MDA-MB-435 melanoma
HS 578T breast = system: HS 578T breast
CAKI-1 renal = system: CAKI-1 renal
UO-31 renal = system: UO-31 renal
MCF7 breast = system: MCF7 breast
SN12C renal = system: SN12C renal
MOLT-4 leukemia = system: MOLT-4 leukemia
TK-10 renal = system: TK-10 renal
NCI-H522 lung = system: NCI-H522 lung
HT29 colon = system: HT29 colon
K-562 leukemia = system: K-562 leukemia
CCRF-CEM leukemia = system: CCRF-CEM leukemia
RPMI-8226 leukemia = system: RPMI-8226 leukemia
HCC-2998 colon = system: HCC-2998 colon
NCI-H460 NSCLC = system: NCI-H460 NSCLC
PC-3 prostate = system: PC-3 prostate
COLO 205 colon = system: COLO 205 colon
NCI-H322M lung = system: NCI-H322M lung
OVCAR-8 ovarian = system: OVCAR-8 ovarian
SNB-75 CNS = system: SNB-75 CNS
NCI/ADR-RES ovarian = system: NCI/ADR-RES ovarian
HCT-116 colon = system: HCT-116 colon
RXF 393 renal = system: RXF 393 renal
SK-MEL-5 melanoma = system: SK-MEL-5 melanoma
UACC-257 melanoma = system: UACC-257 melanoma
SF-268 CNS = system: SF-268 CNS
M14 melanoma = system: M14 melanoma
OVCAR-4 ovarian = system: OVCAR-4 ovarian
UACC-62 melanoma = system: UACC-62 melanoma
A498 renal = system: A498 renal
BT-549 breast = system: BT-549 breast
SNB-19 CNS = system: SNB-19 CNS
SW-620 colon = system: SW-620 colon
MALME-3M melanoma = system: MALME-3M melanoma

NC(=O)[C@H]1CCN(c2ncnc(N)c2F)C[C@@H]1N1CCC[C@@H](Nc2cc(Cl)cc(C(F)(F)F)c2)C1=O
GI50 (HL-60(TB) leukemia): 10.8 µM
TGI (HL-60(TB) leukemia): 22.7 µM
GI50 (ACHN renal): 7.86 µM
TGI (ACHN renal): 25.9 µM
GI50 (OVCAR-3 ovarian): 16.3 µM
TGI (OVCAR-3 ovarian): 35.4 µM
GI50 ([…]-0 renal): 15.6 µM
TGI (786-0 renal): 53.4 µM
GI50 (HCT-15 colon): 8.54 µM
TGI (HCT-15 colon): 32.7 µM
GI50 (SK-MEL-28 melanoma): 15.4 µM
TGI (SK-MEL-28 melanoma): 32.5 µM
GI50 (LOX IMVI melanoma): 11.2 µM
TGI (LOX IMVI melanoma): 23.4 µM
GI50 (U251 glioblastoma): 17.2 µM
TGI (U251 glioblastoma): 60 µM
GI50 (MDA-MB-468 breast): 2.21 µM
TGI (MDA-MB-468 breast): 11.9 µM
GI50 (SF-539 CNS): 14.5 µM
TGI (SF-539 CNS): 33.8 µM
GI50 (HOP-62 NSCLC): 13.6 µM
TGI (HOP-62 NSCLC): 35.8 µM
GI50 (NCI-H23 lung): 14.8 µM
TGI (NCI-H23 lung): 32.2 µM
GI50 (NCI-H226 lung): 10.9 µM
TGI (NCI-H226 lung): 34.5 µM
GI50 (DU-145 prostate): 15.6 µM
TGI (DU-145 prostate): 53.1 µM
GI50 (A549 NSCLC): 10.3 µM
TGI (A549 NSCLC): 25 µM
GI50 (MDA-MB-231 breast): 10.7 µM
TGI (MDA-MB-231 breast): 39.7 µM
GI50 (HOP-92 NSCLC): 13.8 µM
TGI (HOP-92 NSCLC): 33.7 µM
GI50 (KM12 colon): 4.29 µM
TGI (KM12 colon): 30.7 µM
GI50 (OVCAR-5 ovarian): 12.9 µM
TGI (OVCAR-5 ovarian): 40.2 µM
GI50 (IGROV1 ovarian): 2.34 µM
TGI (IGROV1 ovarian): 17.4 µM
GI50 (EKVX NSCLC): 12.2 µM
TGI (EKVX NSCLC): 39.4 µM
GI50 (SK-OV-3 ovarian): 6.43 µM
TGI (SK-OV-3 ovarian): 40.1 µM
GI50 (T-47D breast): 6.32 µM
TGI (T-47D breast): 23.2 µM
GI50 (SF-295 CNS): 14.5 µM
TGI (SF-295 CNS): 31.6 µM
GI50 (MDA-MB-435 melanoma): 19.9 µM
TGI (MDA-MB-435 melanoma): 67.1 µM
GI50 (HS 578T breast): 17.4 µM
TGI (HS 578T breast): 39.3 µM
GI50 (CAKI-1 renal): 11.5 µM
TGI (CAKI-1 renal): 54.3 µM
GI50 (UO-31 renal): 20.3 µM
TGI (UO-31 renal): 57.4 µM
GI50 (MCF7 breast): 14.5 µM
TGI (MCF7 breast): 36.3 µM
GI50 (SN12C renal): 8.02 µM
TGI (SN12C renal): 38.4 µM
GI50 (MOLT-4 leukemia): 1.85 µM
TGI (MOLT-4 leukemia): 6.1 µM
GI50 (TK-10 renal): 14.8 µM
TGI (TK-10 renal): 37.5 µM
GI50 (NCI-H522 lung): 5.3 µM
TGI (NCI-H522 lung): 17.9 µM
GI50 (HT29 colon): 7.05 µM
TGI (HT29 colon): 22 µM
GI50 (K-562 leukemia): 8.33 µM
TGI (K-562 leukemia): 20.9 µM
GI50 (CCRF-CEM leukemia): 10.2 µM
TGI (CCRF-CEM leukemia): 22.1 µM
GI50 (RPMI-8226 leukemia): 11 µM
TGI (RPMI-8226 leukemia): 23.1 µM
GI50 (HCC-2998 colon): 13.6 µM
TGI (HCC-2998 colon): 28.5 µM
GI50 (NCI-H460 NSCLC): 13.4 µM
TGI (NCI-H460 NSCLC): 27.1 µM
GI50 (PC-3 prostate): 11.6 µM
TGI (PC-3 prostate): 46.8 µM
GI50 (COLO 205 colon): 7.06 µM
TGI (COLO 205 colon): 21.5 µM
GI50 (NCI-H322M lung): 21.3 µM
TGI (NCI-H322M lung): 52 µM
GI50 (OVCAR-8 ovarian): 21.5 µM
TGI (OVCAR-8 ovarian): 73.6 µM
GI50 (SNB-75 CNS): 12.5 µM
TGI (SNB-75 CNS): 34.2 µM
GI50 (NCI/ADR-RES ovarian): 47.6 µM
TGI (NCI/ADR-RES ovarian): > 100 µM
GI50 (HCT-116 colon): 9.04 µM
TGI (HCT-116 colon): 22 µM
GI50 (RXF 393 renal): 3.44 µM
TGI (RXF 393 renal): 13.4 µM
GI50 (SK-MEL-5 melanoma): 9.85 µM
TGI (SK-MEL-5 melanoma): 21.6 µM
GI50 (UACC-257 melanoma): 14.9 µM
TGI (UACC-257 melanoma): 28.5 µM
GI50 (SF-268 CNS): 3.26 µM
TGI (SF-268 CNS): 10.5 µM
GI50 (M14 melanoma): 10.9 µM
TGI (M14 melanoma): 24.4 µM
GI50 (OVCAR-4 ovarian): 19.9 µM
TGI (OVCAR-4 ovarian): 64.8 µM
GI50 (UACC-62 melanoma): 6.7 µM
TGI (UACC-62 melanoma): 19.7 µM
GI50 (A498 renal): 12.5 µM
TGI (A498 renal): 29.2 µM
GI50 (BT-549 breast): 15.6 µM
TGI (BT-549 breast): 31.6 µM
GI50 (SNB-19 CNS): 30 µM
TGI (SNB-19 CNS): > 100 µM
GI50 (SW-620 colon): 15.2 µM
TGI (SW-620 colon): 31.9 µM
GI50 (MALME-3M melanoma): 14.5 µM
TGI (MALME-3M melanoma): 28.5 µM
